Measured values published in patent US20120027753A1, “MicroRNAs in Never-Smokers and Related Materials and Methods” (THE OHIO STATE UNIVERSITY, priority 2009, published 2012).

Key:
Format in all cases: cell-based, human
[1] = tested on: uncleaved PARP in H3255 cells; experiment: Western blot of uncleaved PARP, H3255; conditions: H3255, both anti-miR-21 and AG1478 (2 μM, 72 h)
Protocol: (§1) FIG. 3D: Uncleaved PARP was evaluated by Western blot. Cells were transfected with anti-miR-21 or anti-EGFP as above and then grown in the presence or absence of 2 μM of AG1478 for 72 h. β-actin was a loading control.
(§2) Cells were lysed in buffer containing 50 mM Tris-HCl, pH 7.6, 150 mM NaCl, 0.1% sodium dodecyl sulfate, 1% Nonidet P-40, and 0.5% sodium-deoxycholate. The lysates were kept on ice for 30 min, and then centrifuged at 13000 g for 30 min. The supernatant was collected and then 10 μg of protein were separated by gel electrophoresis on 10% gels, transferred to nitrocellulose membranes and detected by immunoblotting using a chemiluminescence system (GE Healthcare Bio-Sciences Corp, Piscataway, N.J.). The images were quantified by measuring signal intensity using NIH ImageJ1.40g (rsb.info.nih.gov/ij/). The antibodies detecting EGFR, phospho-EGFR (Tyr1173), phospho-Akt (Ser473), PARP and β-actin were purchased from Cell Signaling Technology (Beverley, Mass.).

[2] = tested on: H441 cells (caspase-3 and caspase-7 activities); experiment: ApoONE caspase 3/7 apoptosis assay, H441
Protocol: (§3) FIGS. 3B-3C: Cells (H3255 or H441) were transfected with 40 nM of anti-miR-21 (+) or anti-EGFP (−) for 72 h and then grown in the presence or absence of 0.2 μM of AG1478 for 24 h (H3255) or 10 μM for 72 h (H441). The activities of caspase 3/7 were expressed as the relative values to the activities of cells without anti-miR-21 and AG1478. Data were mean±SD from at least four independent experiments. *, p<0.05, Student t-test.
(§4) 2′-O-methyl oligonucleotides were chemically synthesized at Integrated DNA Technologies (Coralville, Iowa). 2′-O-methyl oligonucleotides had the following sequences: 2′OMe-enhanced green fluorescent protein (EGFP) (anti-EGFP) 5′-AAGGCAAGCUGACCCUGAAGU-3′ [SEQ ID NO:1] and 2′OMe-miR-21 (anti-miR-21) 5′-UCA ACA UCA GUC UGA UAA GCUA-3′ [SEQ ID NO:2]. H441 and H3255 cells were plated in triplicate in 96-well plates. Cells were transfected using LipofectAMINE 2000 reagent (Invitrogen) 24 h after plating. […] Activities of caspase-3 and caspase-7 were analyzed using ApoONE Homogeneous Caspase 3/7 Assay (Promega) according to the manufacturer's instructions. Samples were measured after 6 h of incubation with the caspase substrate on a fluorescent plate reader using wavelengths of 485 and 535 nm for excitation and emission, respectively. […]

miR-21 in H441 cells = experiment: qRT-PCR of miR-21 after anti-miR-21 transfection, H441; conditions: H441, 40 nM, 72 h, vs anti-EGFP control
Protocol: (§5) FIG. 3A: Cells were transfected with 40 nM of anti-miR-21 (+) or control oligonucleotide (anti-EGFP) (−) for 72 h and examined by qRT-PCR. The expression levels of miR-21 after transfection of anti-miR-21 were expressed as the relative values to control. Data were mean±SD from three independent experiments. *, p<0.05, paired t-test.
(§6) Expression of mature miRs was examined using qRT-PCR analysis using a TaqMan Human MicroRNA Assay kit (Applied Biosystems, Foster City, Calif.). RNU6B was used as an endogenous control (#4373381, Applied Biosystems). Reactions were performed using a PRISM 7700 Sequence Detector System (Applied Biosystems). Gene expression was quantified and values were reported as 2-ΔΔCT. Data were presented as mean±SD from triplicate.
(§7) 2′-O-methyl oligonucleotides were chemically synthesized at Integrated DNA Technologies (Coralville, Iowa). […] Activities of caspase-3 and caspase-7 were analyzed using ApoONE Homogeneous Caspase 3/7 Assay (Promega) according to the manufacturer's instructions. Samples were measured after 6 h of incubation with the caspase substrate on a fluorescent plate reader using wavelengths of 485 and 535 nm for excitation and emission, respectively. […]

[3] = tested on: uncleaved PARP in H441 cells; experiment: Western blot of uncleaved PARP, H441; conditions: H441, anti-miR-21 in the presence or absence of AG1478 (2 μM, 72 h)
Protocol: as §1, §2

miR-21 in H3255 cells = experiment: qRT-PCR of miR-21 after anti-miR-21 transfection, H3255; conditions: H3255, 40 nM, 72 h, vs anti-EGFP control
Protocol: as §5, §6, §7

[4] = tested on: H3255 cells (caspase-3 and caspase-7 activities); experiment: ApoONE caspase 3/7 apoptosis assay, H3255
Protocol: as §3, §4

[5] = tested on: miR-21 expression in H441 cells; experiment: qRT-PCR of miR-21 expression after AG1478 treatment, H441; conditions: H441, AG1478 at 10 μM, absence of EGF, p<0.05
Protocol: FIG. 7: AG1478 represses miR-21 expression in H441 lung adenocarcinoma cells. MiR-21 expression levels were analyzed by qRT-PCR after the AG1478 treatments (2 μM or 10 μM) in the absence of EGF and expressed relative to untreated cells. Data were mean±SD from triplicate. *, p<0.05, paired t-test.
as §6
(§8) AG1478 was purchased from Calbiochem (San Diego, Calif.). Epidermal growth factor (EGF) was purchased from Promega (Madison, Wis.). To evaluate the effect of AG1478 on the EGFR signaling pathway and miR-21 expression levels, lung cancer cell lines were serum-starved for 24 h, incubated in the presence or absence of AG1478 (2 μM or 10 μM) for 2 h, and then for an additional 15 min in the presence or absence of EGF (20 ng/ml).

[6] = tested on: EGFR signaling (phospho-EGFR, phospho-Akt) in H3255 cells; experiment: Western blot of p-EGFR and p-Akt after AG1478 treatment, H3255; conditions: H3255, AG1478 at either 2 μM or 10 μM for 2 h, with or without EGF 20 ng/ml
Protocol: (§9) FIGS. 2A-2B: AG1478 represses miR-21 expression. H3255 lung adenocarcinoma cells, characterized by a high expression of miR-21 and EGFR mutation, were serum-starved for 24 h and then grown in either the presence or absence of AG1478 (2 μM or 10 μM) for 2 h with or without following exposure to 20 ng/ml of EGF for 15 min.
FIG. 2A: The effect of AG1478 on phospho-EGFR (p-EGFR) and phospho-Akt (p-Akt) expression. β-actin was a loading control.
as §8
as §2, with “The lysates were kept on ice for 30 min, and then centrifuged at 13000 g for 30 min.” left out, “The antibodies detecting EGFR, phospho-EGFR (Tyr1173), phospho-Akt (Ser473), PARP and β-actin were purchased from Cell Signaling Technology (Beverley, Mass.).” left out

[7] = tested on: H1650 lung adenocarcinoma cells (EGFR mutant ΔE746-A750); experiment: MTS growth inhibition assay, H1650
Description: (§10) Six lung adenocarcinoma cell lines (A549, H23, H441, H1650, H1975 and H3255), one squamous cell line (H157) and one large cell carcinoma cell line (H1299) were used in this study. H3255 was provided by National Cancer Institute and maintained in ACL-4 medium (GIBCO) with 5% fetal bovine serum (GIBCO). A549, H23, H441, H1650, H1975, H157 and H1299 were purchased from American Type Culture Collection (ATCC) and maintained in RPMI 1640 (GIBCO) with 10% fetal bovine serum. hTERT-immortalized normal human bronchial epithelial cells (HBET2) were established.
(§11) Growth inhibition was assessed by MTS assay (Dojindo, Japan) to examine the effect of AG1478 on lung cancer cell lines. Cell suspensions (5,000 cells/well) were seeded into 96-well plates and increasing concentrations of AG1478 (0, 0.4, 2.0, 10 and 50 μM) were added. After incubation for 72 h at 37° C., MTS [3-(4,5-dimethylthiazol-2-yl)-5-(3-carboxymethoxyphenyl)-2-(4-sulfophenyl) 2H-tetrazolium, inner salt] was added to each well and incubated for 2 h at 37° C., and then absorbance was measured using a microplate reader with a test wavelength of 450 nm. The IC50 value was defined as the concentration needed for 50% reduction of the growth by treatment with AG1478. Each experiment was done at least in triplicate, and four times independently. The data were shown as mean±SD.

[8] = tested on: H3255 lung adenocarcinoma cells (EGFR mutant L858R); experiment: MTS growth inhibition assay, H3255; conditions: 72 h, read-out: IC50 (half maximal inhibitory concentration), cell growth
Description: as §10, §11

[9] = tested on: H441 lung adenocarcinoma cells (EGFR wild-type); experiment: MTS growth inhibition assay, H441; conditions: 72 h, read-out: IC50 (half maximal inhibitory concentration), cell growth
Description: as §10, §11

[10] = tested on: A549 lung adenocarcinoma cells (EGFR wild-type); experiment: MTS growth inhibition assay, A549
Description: as §10, §11

[11] = tested on: miR-21 expression in H3255 cells; experiment: qRT-PCR of miR-21 expression after AG1478/EGF treatment, H3255; conditions: for miR-21 expression levels: AG1478 2 μM or 10 μM
Protocol: as §9
FIG. 2B: MiR-21 expression levels analyzed by qRT-PCR after the AG1478 treatments (2 μM or 10 μM) with or without EGF ligand stimulation. MiR-21 expression levels were expressed as the relative values to untreated cells in the absence of EGF. Data were mean±SD from four independent experiments. *, p<0.05, paired t-test.
as §6, §8

[12] = tested on: H1975 lung adenocarcinoma cells (EGFR mutant L858R and T790M); experiment: MTS growth inhibition assay, H1975
Description: as §10, §11

anti-miR-21: 2′-O-methyl antisense oligonucleotide targeting miR-21, 5′-UCA ACA UCA GUC UGA UAA GCUA-3′ [SEQ ID NO:2] (antisense UCAACAUCAGUCUGAUAAGCUA; all 2'-O-methyl, backbone not given here)
amounts of uncleaved PARP [1]: markedly decreased | apoptosis (caspase 3/7 activities) ([2]; H441, anti-miR-21 40 nM alone): significant increase in apoptotic response | apoptosis (caspase 3/7 activities) ([2]; H441, anti-miR-21 40 nM in combination with 10 μM AG1478 for 72 h): further enhanced apoptotic response | miR-21 expression after antisense transfection (miR-21 in H441 cells): repression of miR-21 in these cells was confirmed | amounts of uncleaved PARP [3]: markedly decreased | miR-21 expression after antisense transfection (miR-21 in H3255 cells): repression of miR-21 in these cells was confirmed | apoptosis (caspase 3/7 activities) ([4]; H3255, anti-miR-21 40 nM alone): did not induce apoptosis | apoptosis (caspase 3/7 activities) ([4]; H3255, anti-miR-21 40 nM in combination with AG1478 at 0.2 μM for 24 h): significantly enhanced AG1478-induced apoptotic response

COc1cc2ncnc(Nc3cccc(Cl)c3)c2cc1OC [AG1478]
miR-21 expression [5]: significantly repressed miR-21 expression | EGFR signaling (p-EGFR and p-Akt) [6]: effectively inhibited the EGFR signaling | cell proliferation [7]: inhibited cell proliferation | IC50 [8]: 0.3 µM | IC50 [9]: 10 µM | cell proliferation [10]: inhibited cell proliferation | miR-21 expression levels ([11]; H3255, absence of EGF, p<0.01): significantly repressed | miR-21 expression levels ([11]; H3255, with EGF 20 ng/ml, p<0.05): inhibited back to the basal levels | cell proliferation [12]: inhibited cell proliferation

EGF: Epidermal growth factor (EGF) ligand, purchased from Promega
upregulation of miR-21 expression ([11]; H3255, serum-starved, EGF 20 ng/ml for 15 min, relative to untreated cells): ~2.5 fold
